Tested on: Streptococcus mutans
Assay: Antibacterial activity against Streptococcus mutans ATCC 25175 after 16 to 20 hrs by NCCLS method
Format: functional

Row | Compound | Activity [µg/mL]
1 | COc1c(CC=C(C)C)c(O)cc2c1-c1oc3cc(O)c(CC=C(C)C)cc3c1CO2 [GLYCYRRHIZOL A] | 1
2 | CC(C)=CCc1c(O)c(CC=C(C)C)c2occ(-c3ccc(O)cc3)c(=O)c2c1O | 2
3 | COc1cc(O)cc2c1-c1oc3c4c(ccc3c1CO2)OC(C)(C)C=C4 [GLYCYRRHIZOL B] | 32
4 | COc1c2c(cc3oc(=O)c4c5ccc(O)cc5oc4c13)OC(C)(C)CC2 [ISOGLYCYROL] | 500
5 | COc1cc2oc(=O)c3c4ccc(O)cc4oc3c2c(OC)c1CC=C(C)C | 500
6 | COc1cc2occ(-c3ccc(O)cc3)c(=O)c2c(O)c1CC=C(C)C [GANCAONIN G] | 125
